Reference: publication doi:10.64898/2025.12.15.694265, “Small molecule inhibitor of PPARγ acetylation promotes insulin sensitization and browning of white adipose tissue with improved safety” (bioRxiv, 2025)

How the values were obtained:
PPARγ [1] = biological target: T1, PPARγ (Homo sapiens, UniProt P37231); assay: X-ray co-crystal structure at […] Å; fluorescence polarization competition binding with GST-tagged LBD
T1 construct: gene PPARG
T1 sequence (P37231 223-505): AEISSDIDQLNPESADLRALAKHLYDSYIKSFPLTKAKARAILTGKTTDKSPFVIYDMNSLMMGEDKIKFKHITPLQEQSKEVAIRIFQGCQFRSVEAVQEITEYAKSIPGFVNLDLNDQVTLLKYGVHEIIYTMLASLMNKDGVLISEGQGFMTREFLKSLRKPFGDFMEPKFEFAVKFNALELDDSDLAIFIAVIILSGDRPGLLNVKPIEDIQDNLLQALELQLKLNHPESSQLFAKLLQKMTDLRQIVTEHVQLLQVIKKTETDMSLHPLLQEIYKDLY

PPARγ [2] = biological target: T2, PPARγ (Homo sapiens, UniProt P37231); assay: 3xPPRE luciferase reporter in HEK293 cells, antagonism of Rosi activation; assay type: cell-based
T2 construct: gene PPARG; human PPARγ2 expressed in HEK-293 cells
T2 sequence (P37231 1-505): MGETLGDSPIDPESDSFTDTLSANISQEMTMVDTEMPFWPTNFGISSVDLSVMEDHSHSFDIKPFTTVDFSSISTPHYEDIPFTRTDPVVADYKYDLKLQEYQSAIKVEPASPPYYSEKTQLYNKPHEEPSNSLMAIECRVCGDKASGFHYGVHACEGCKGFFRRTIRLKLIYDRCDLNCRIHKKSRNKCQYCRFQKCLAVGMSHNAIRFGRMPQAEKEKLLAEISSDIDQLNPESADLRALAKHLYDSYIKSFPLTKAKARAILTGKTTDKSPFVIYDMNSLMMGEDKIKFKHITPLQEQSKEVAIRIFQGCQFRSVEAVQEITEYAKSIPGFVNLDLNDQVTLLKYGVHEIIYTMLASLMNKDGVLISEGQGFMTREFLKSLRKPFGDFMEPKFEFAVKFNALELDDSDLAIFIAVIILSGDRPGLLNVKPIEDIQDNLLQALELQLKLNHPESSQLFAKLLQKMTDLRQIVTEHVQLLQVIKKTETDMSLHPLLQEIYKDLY

Row | IC50 (PPARγ [1]) [µM] | Structure (SMILES) | 3xPPRE luciferase reporter in HEK293 cells, antagonism of Rosi activation (PPARγ [2])
1 | ~5 | N#Cc1c(C2CCCCC2)nc(Sc2ccc(C(F)(F)F)cc2[N+](=O)[O-])[nH]c1=O [TPMD, 4-cyclohexyl-2-((2-nitro-4-(trifluoromethyl)phenyl)thio)-6-oxo-1,6-dihydropyrimidine-5-carbonitrile] | 
2 |  | O=C(Nc1ccccc1)c1cc([N+](=O)[O-])ccc1Cl [GW, GW9662] | GW9662 significantly diminished the activation of 3xPPRE reporter by Rosi
